Drawing on PubChem BioAssay (NCI), this text covers TGI for eleven molecules.

Test systems include KM12 colon; UO-31 renal; NCI-H460 lung; NCI/ADR-RES ovarian; OVCAR-5 ovarian; ACHN renal; UACC-62 melanoma; HCT-116 colon; MDA-MB-435; A549 NSCLC.
Holding throughout (assay): NCI tumour cell line growth inhibition, 48 h

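Dose response: 5 concentrations. Exposure: 48 h. Format: 96-well plates. Endpoint: linear interpolation; highest concentration if not reached. TGI is the concentration that stops growth completely.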

Turning to `O=C(NCCO)c1ccc(Cl)cc1`, the TGI with KM12 colon, with UO-31 renal, with NCI-H460 lung, in the experiment on NCI/ADR-RES ovarian, in the experiment with OVCAR-5 ovarian and in the experiment with ACHN renal was above 100 µM each time. Further, the TGI in the experiment on UACC-62 melanoma, with HCT-116 colon, in the experiment on MDA-MB-435 and in the experiment with A549 NSCLC was above 100 µM each time.

Consider `Cc1cc(S(=O)(=O)Nc2nnc3cc(C(F)(F)F)cc(C)n23)c(S)cc1Cl`, for which the TGI is above 100 µM with KM12 colon; above 100 µM in the experiment on UO-31 renal; 42.5 µM in the experiment on NCI-H460 lung; above 100 µM with NCI/ADR-RES ovarian; above 100 µM in the experiment with OVCAR-5 ovarian; above 100 µM in the experiment with ACHN renal. Besides, the TGI in the experiment on UACC-62 melanoma was above 100 µM; in the experiment with HCT-116 colon it was above 100 µM; in the experiment on MDA-MB-435, above 100 µM; in the experiment with A549 NSCLC, 52.8 µM.

`COc1cc2ccnc3c2c(c1O)N(C)C=C3`: the TGI in the experiment on KM12 colon is 40.2 µM; with UO-31 renal, 22.3 µM; with NCI-H460 lung it was above 66 µM; in the experiment on NCI/ADR-RES ovarian, 54.5 µM; in the experiment on OVCAR-5 ovarian, 33.9 µM; with ACHN renal, 27.6 µM. In addition, the TGI in the experiment with UACC-62 melanoma was 25.6 µM; in the experiment with HCT-116 colon, 16.4 µM; in the experiment with MDA-MB-435, above 86.5 µM; in the experiment with A549 NSCLC, 50.3 µM.

Regarding `NC(N)=N/N=C/c1nc2sccn2c1[N+](=O)[O-]`, the TGI is 47.6 µM in the experiment with KM12 colon; above 100 µM with UO-31 renal; 40.9 µM in the experiment on NCI-H460 lung; above 100 µM in the experiment with NCI/ADR-RES ovarian; above 100 µM in the experiment on OVCAR-5 ovarian; above 100 µM with ACHN renal. Besides, the TGI is above 100 µM in the experiment on UACC-62 melanoma, 59.6 µM in the experiment with HCT-116 colon, 39.9 µM in the experiment with MDA-MB-435 and above 100 µM with A549 NSCLC.

Turning to `CC(C)(C)N1Cc2ccccc2/C(=C/Sc2ccccc2)C1=O`, the TGI came to 31.4 µM in the experiment on KM12 colon; 24.8 µM with UO-31 renal; 30 µM in the experiment on NCI-H460 lung; 33.6 µM in the experiment on NCI/ADR-RES ovarian; 39.8 µM in the experiment on OVCAR-5 ovarian; 32 µM in the experiment with ACHN renal. In addition, the TGI was found to be 24.3 µM in the experiment on UACC-62 melanoma, 19.8 µM with HCT-116 colon, 20.1 µM in the experiment on MDA-MB-435 and 37.6 µM with A549 NSCLC.

For the molecule `COc1ccc(OC)c2cc(Cc3ccc(N(C)C)cc3)c(=O)c(Cc3ccc(N(C)C)cc3)cc12`, the TGI with KM12 colon, in the experiment with UO-31 renal, in the experiment on NCI-H460 lung, in the experiment with NCI/ADR-RES ovarian, in the experiment with OVCAR-5 ovarian and with ACHN renal was above 100 µM throughout. Besides, the TGI in the experiment on UACC-62 melanoma, in the experiment on HCT-116 colon, in the experiment on MDA-MB-435 and in the experiment on A549 NSCLC was above 100 µM in each case.

In the case of `CN1CC(c2ccccc2)N(CCCCN2CC(c3ccccc3)N(C)CC2c2ccccc2)CC1c1ccccc1` (stereo not given), the TGI in the experiment with KM12 colon, in the experiment on UO-31 renal, in the experiment on NCI-H460 lung, in the experiment with NCI/ADR-RES ovarian, in the experiment with OVCAR-5 ovarian and in the experiment on ACHN renal was above 100 µM throughout. For the same molecule, the TGI was above 100 µM in the experiment with UACC-62 melanoma, 24.2 µM in the experiment on HCT-116 colon, above 100 µM with MDA-MB-435 and above 100 µM in the experiment on A549 NSCLC.

As for `COC(=O)C(COC(=O)/C=C/c1ccc(OC(C)=O)c(OC(C)=O)c1)OC(=O)/C=C/c1ccc(OC(C)=O)c(OC(C)=O)c1` (stereo not given), the TGI was 30.8 µM in the experiment with KM12 colon; 21.8 µM with UO-31 renal; 57.2 µM with NCI-H460 lung; 50.5 µM with NCI/ADR-RES ovarian; 36.8 µM in the experiment on OVCAR-5 ovarian; 27.8 µM with ACHN renal. Moreover, the TGI came out at 30.9 µM in the experiment on UACC-62 melanoma, 16.3 µM in the experiment with HCT-116 colon, 23.9 µM with MDA-MB-435 and 41.6 µM with A549 NSCLC.

Turning to `O=C1OS2(OCc3cccc4cccc2c34)c2ccccc21` (stereo not given), the TGI with KM12 colon, with UO-31 renal, in the experiment with NCI-H460 lung, with NCI/ADR-RES ovarian, with OVCAR-5 ovarian and in the experiment with ACHN renal was above 100 µM each time. The TGI with UACC-62 melanoma, in the experiment on HCT-116 colon, with MDA-MB-435 and with A549 NSCLC was above 100 µM in each case.

On to `Cc1ccc(O)c(C2=NNC(c3cccc(Br)c3)C2)c1` (stereo not given), for which the TGI in the experiment with KM12 colon, in the experiment with UO-31 renal, in the experiment on NCI-H460 lung, with NCI/ADR-RES ovarian, with OVCAR-5 ovarian and in the experiment on ACHN renal was above 100 µM each time. Also, the TGI in the experiment on UACC-62 melanoma was above 100 µM; in the experiment on HCT-116 colon it was above 100 µM; in the experiment on MDA-MB-435, 46.8 µM; with A549 NSCLC, above 100 µM.

Take `OC1OC(c2ccco2)C(F)(F)C(F)(F)C1(F)F` (stereo not given): the TGI with KM12 colon, with UO-31 renal, in the experiment on NCI-H460 lung, in the experiment with NCI/ADR-RES ovarian, in the experiment on OVCAR-5 ovarian and in the experiment on ACHN renal was above 100 µM each time. The TGI with UACC-62 melanoma, with HCT-116 colon, in the experiment with MDA-MB-435 and in the experiment with A549 NSCLC was above 100 µM throughout.
